Among the data in US8846928B2 (Portola Pharmaceuticals, Inc., priority 2010, dated 2014) are IC50 values, retold here.

The target in this assay is T1, full length active recombinant SYK enzyme (Homo sapiens, UniProt P43405).
T1 construct: full length active recombinant SYK enzyme (Millipore, Calif.); purchased Millipore
The assay can be described thus: Inhibition of Syk tyrosine phosphorylation activity (LANCE TR-FRET kinase assay). The format is biochemical.

Each structure is given as a SMILES string.

By IC50 is commonly meant the concentration needed to halve the response being measured. Consider `NC(=O)c1cc(F)c(N[C@@H]2CCCC(F)(F)[C@@H]2N)nc1Nc1ccc2ncsc2c1` [Example 328, 6-((1R,2R)-2-amino-3,3-difluorocyclohexylamino)-2-(benzo[d]thiazol-6-ylamino)-5-fluoronicotinamide], for which the IC50 was in the range of 10 to 100 nM.
`NC(=O)c1cc(F)c(N[C@@H]2CCCC(F)(F)[C@@H]2N)nc1Nc1cccc2ncsc12` [Example 329, 6-((1R,2R)-2-amino-3,3-difluorocyclohexylamino)-2-(benzo[d]thiazol-7-ylamino)-5-fluoronicotinamide]: the IC50 lay within 100 to 1000 nM.
Then `Cn1ccc2c(Nc3nc(N[C@@H]4CCCC(F)(F)[C@@H]4N)c(F)cc3C(N)=O)cccc21` [Example 330, 6-((1R,2R)-2-amino-3,3-difluorocyclohexylamino)-5-fluoro-2-(1-methyl-1H-indol-4-ylamino)nicotinamide], with 10 to 100 nM; and `Cn1ccc2cc(Nc3nc(N[C@@H]4CCCC(F)(F)[C@@H]4N)c(F)cc3C(N)=O)ccc21` [Example 331, 6-((1R,2R)-2-amino-3,3-difluorocyclohexylamino)-5-fluoro-2-(1-methyl-1H-indol-5-ylamino)nicotinamide], with 10 to 100 nM.
For `Cc1cncc(Nc2nc(N[C@@H]3CCCC(F)(F)[C@@H]3N)c(F)cc2C(N)=O)c1` [Example 332, 6-((1R,2R)-2-amino-3,3-difluorocyclohexylamino)-5-fluoro-2-(5-methylpyridin-3-ylamino)nicotinamide], the half-maximal inhibitory concentration (IC50) fell in the range of 100 to 1000 nM.
With `Cc1cc(Nc2nc(N[C@@H]3CCCC(F)(F)[C@@H]3N)c(F)cc2C(N)=O)sn1` [Example 333, 6-((1R,2R)-2-amino-3,3-difluorocyclohexylamino)-5-fluoro-2-(3-methylisothiazol-5-ylamino)nicotinamide] the figure was 100 to 1000 nM; with `Cc1ccc(Nc2nc(N[C@@H]3CCCC(F)(F)[C@@H]3N)c(F)cc2C(N)=O)cc1` [Example 334, 6-((1R,2R)-2-amino-3,3-difluorocyclohexylamino)-5-fluoro-2-(p-tolylamino)nicotinamide], 100 to 1000 nM; with `Cc1cccc(Nc2nc(N[C@@H]3CCCC(F)(F)[C@@H]3N)c(F)cc2C(N)=O)c1` [Example 335, 6-((1R,2R)-2-amino-3,3-difluorocyclohexylamino)-5-fluoro-2-(m-tolylamino)nicotinamide], 10 to 100 nM.
Then `NC(=O)c1cc(F)c(N[C@@H]2CCCC(F)(F)[C@@H]2N)nc1Nc1cccc(Cl)c1` [Example 336, 6-((1R,2R)-2-amino-3,3-difluorocyclohexylamino)-2-(3-chlorophenylamino)-5-fluoronicotinamide], with 100 to 1000 nM.
Then `NC(=O)c1cc(F)c(N[C@@H]2CCCC(F)(F)[C@@H]2N)nc1Nc1cc(F)cc(F)c1` [Example 337, 6-((1R,2R)-2-amino-3,3-difluorocyclohexylamino)-2-(3,5-difluorophenylamino)-5-fluoronicotinamide], with 100 to 1000 nM; and `COc1cc(F)cc(Nc2nc(N[C@@H]3CCCC(F)(F)[C@@H]3N)c(F)cc2C(N)=O)c1` [Example 338, 6-((1R,2R)-2-amino-3,3-difluorocyclohexylamino)-5-fluoro-2-(3-fluoro-5-methoxyphenylamino)nicotinamide], with 100 to 1000 nM.
For the molecule `Cc1cc(F)cc(Nc2nc(N[C@@H]3CCCC(F)(F)[C@@H]3N)c(F)cc2C(N)=O)c1` [Example 339, 6-((1R,2R)-2-amino-3,3-difluorocyclohexylamino)-5-fluoro-2-(3-fluoro-5-methylphenylamino)nicotinamide], the 50% inhibitory concentration (IC50) is 10 to 100 nM.
With `NC(=O)c1cc(F)c(N[C@H]2[C@@H](N)CCCC2(F)F)nc1Nc1cccc(-n2nccn2)c1` [Example 340] the figure was 1 to 10 nM.
Then `NC(=O)c1cc(F)c(N[C@H]2[C@@H](N)CCCC2(F)F)nc1Nc1cccc(-n2cccn2)c1` [Example 341, 2-(3-(1H-pyrazol-1-yl)phenylamino)-6-((1S,6S)-6-amino-2,2-difluorocyclohexylamino)-5-fluoronicotinamide], with 1 to 10 nM; and `NC(=O)c1cc(F)c(N[C@H]2[C@@H](N)CCCC2(F)F)nc1Nc1cccc(-c2ncccn2)c1` [Example 342, 6-((1S,6S)-6-amino-2,2-difluorocyclohexylamino)-5-fluoro-2-(3-(pyrimidin-2-yl)phenylamino)nicotinamide], with 10 to 100 nM.
Then `NC(=O)c1cc(F)c(N[C@H]2[C@@H](N)CCCC2(F)F)nc1Nc1ccc2ncccc2c1` [Example 343, 6-((1S,6S)-6-amino-2,2-difluorocyclohexylamino)-5-fluoro-2-(quinolin-6-ylamino)nicotinamide], with 1 to 10 nM; and `NC(=O)c1cc(F)c(N[C@H]2[C@@H](N)CCCC2(F)F)nc1Nc1cnc2ccccc2c1` [Example 344, 6-((1S,6S)-6-amino-2,2-difluorocyclohexylamino)-5-fluoro-2-(quinolin-3-ylamino)nicotinamide], with 1 to 10 nM.
Take `NC(=O)c1cc(F)c(N[C@H]2[C@@H](N)CCCC2(F)F)nc1Nc1ccc2ncsc2c1` [Example 345, 6-((1S,6S)-6-amino-2,2-difluorocyclohexylamino)-2-(benzo[d]thiazol-6-ylamino)-5-fluoronicotinamide]: the half-maximal inhibitory concentration (IC50) was in the range of 1 to 10 nM.
With `Cc1ccc(Nc2nc(N[C@H]3[C@@H](N)CCCC3(F)F)c(F)cc2C(N)=O)cc1` [Example 346] the figure was 10 to 100 nM; with `NC(=O)c1cc(F)c(N[C@H]2[C@@H](N)CCCC2(F)F)nc1Nc1cccnc1` [Example 347, 6-((1S,6S)-6-amino-2,2-difluorocyclohexylamino)-5-fluoro-2-(pyridin-3-ylamino)nicotinamide], 10 to 100 nM; with `NC(=O)c1cc(F)c(N[C@H]2[C@@H](N)CCCC2(F)F)nc1Nc1cncc(F)c1` [Example 348], 10 to 100 nM.
Then `Cc1ccc(Nc2nc(N[C@@H]3CCOC[C@@H]3N)c(F)cc2C(N)=O)cc1` [Example 349, 6-((3R,4R)-3-aminotetrahydro-2H-pyran-4-ylamino)-5-fluoro-2-(p-tolylamino)nicotinamide], with 10 to 100 nM.
Then `NC(=O)c1cc(F)c(N[C@@H]2CCNC2)nc1Nc1ccc2ncccc2c1` [Example 351, (R)-5-fluoro-6-(pyrrolidin-3-ylamino)-2-(quinolin-6-ylamino)nicotinamide], with 10 to 100 nM.
With `CC[C@H](Nc1nc(Nc2cccc(C)c2)c(C(N)=O)cc1F)C1(N)CC1` [Example 369, (S)-6-(1-(1-aminocyclopropyl)propylamino)-5-fluoro-2-(m-tolylamino)nicotinamide], the half-maximal inhibitory concentration (IC50) lay within 100 to 1000 nM.
Take `CC[C@H](Nc1nc(Nc2ccc(C)cc2)c(C(N)=O)cc1F)C1(N)CC1` [Example 370, (S)-6-(1-(1-aminocyclopropyl)propylamino)-5-fluoro-2-(p-tolylamino)nicotinamide]: the IC50 is more than 1000 nM.
On to `CC[C@H](Nc1nc(Nc2cccnc2)c(C(N)=O)cc1F)C1(N)CC1` [Example 371, (S)-6-(1-(1-aminocyclopropyl)propylamino)-5-fluoro-2-(pyridin-3-ylamino)nicotinamide], for which the half-maximal inhibitory concentration (IC50) was more than 1000 nM.
With `CC[C@@H](Nc1nc(Nc2cncc(F)c2)c(C(N)=O)cc1F)C1(N)CC1` [Example 373, (R)-6-(1-(1-aminocyclopropyl)propylamino)-5-fluoro-2-(5-fluoropyridin-3-ylamino)nicotinamide], the IC50 was 10 to 100 nM.
Then `NC(=O)c1cc(F)c(NC2(C(N)=O)CCCC2)nc1Nc1cnc2ccccc2c1` [Example 376, 6-(1-carbamoylcyclopentylamino)-5-fluoro-2-(quinolin-3-ylamino)nicotinamide], with 100 to 1000 nM.
With `NC(=O)c1cc(F)c(NC(CC(F)(F)F)C(N)=O)nc1Nc1cnc2ccccc2c1` (stereo not shown) [Example 377, 6-(1-amino-4,4,4-trifluoro-1-oxobutan-2-ylamino)-5-fluoro-2-(quinolin-3-ylamino)nicotinamide] the figure was 10 to 100 nM; with `NC(=O)c1cc(F)c(NC2(C(N)=O)CCCCC2)nc1Nc1cnc2ccccc2c1` [Example 378, 6-(1-carbamoylcyclohexylamino)-5-fluoro-2-(quinolin-3-ylamino)nicotinamide], more than 1000 nM.
Then `NC(=O)c1cc(F)c(NC2(C(N)=O)CCC2)nc1Nc1cnc2ccccc2c1` [Example 379, 6-(1-carbamoylcyclobutylamino)-5-fluoro-2-(quinolin-3-ylamino)nicotinamide], with 100 to 1000 nM; and `Cc1cccc(Nc2nc(NC[C@@H](N)CC(F)F)c(F)cc2C(N)=O)c1` [Example 380, (S)-2-(m-toluidino)-6-(2-amino-4,4-difluorobutylamino)-5-fluoronicotinamide], with 10 to 100 nM; and `Cc1ccc(Nc2nc(NC[C@@H](N)CC(F)F)c(F)cc2C(N)=O)cc1` [Example 381, (S)-2-(p-toluidino)-6-(2-amino-4,4-difluorobutylamino)-5-fluoronicotinamide], with 100 to 1000 nM.
Turning to `NC(=O)c1cc(F)c(NC[C@@H](N)CC(F)F)nc1Nc1cncc(F)c1` [Example 382, (S)-6-(2-amino-4,4-difluorobutylamino)-5-fluoro-2-(5-fluoropyridin-3-ylamino)nicotinamide], the half-inhibitory concentration (IC50) was 100 to 1000 nM.
With `NC(=O)c1ccc(N[C@@H]2CCNC2)nc1Nc1ccc2ncccc2c1` [Example 383, (R)-6-(pyrrolidin-3-ylamino)-2-(quinolin-6-ylamino)nicotinamide] the figure was more than 1000 nM; with `NC(=O)c1cc(F)c(N[C@@H]2CCOC[C@@H]2N)nc1Nc1ccc2ncsc2c1` [Example 384, 6-((3R,4R)-3-aminotetrahydro-2H-pyran-4-ylamino)-2-(benzo[d]thiazol-6-ylamino)-5-fluoronicotinamide], 1 to 10 nM; with `Cc1cccc(Nc2nc(N[C@@H]3CCOC[C@@H]3N)c(F)cc2C(N)=O)c1` [Example 385, 6-((3R,4R)-3-aminotetrahydro-2H-pyran-4-ylamino)-5-fluoro-2-(m-tolylamino)nicotinamide], 1 to 10 nM.
